The text below walks through data of US8134015B2, “Compound inhibiting in vivo phosphorous transport and medicine containing the same” (Kyowa Hakko Kirin Co., Ltd., priority 2003, dated 2012).

pIC50: −log10 of the molar value. Some results are limits rather than exact numbers.

For one assay, the target named is T1, rat NaPi-2b (Rattus norvegicus, UniProt Q9JJ09).
T1 construct: expressed in transfected cells; host or cells: Xenopus oocytes injected with cRNA
T1 sequence (Q9JJ09 1-695): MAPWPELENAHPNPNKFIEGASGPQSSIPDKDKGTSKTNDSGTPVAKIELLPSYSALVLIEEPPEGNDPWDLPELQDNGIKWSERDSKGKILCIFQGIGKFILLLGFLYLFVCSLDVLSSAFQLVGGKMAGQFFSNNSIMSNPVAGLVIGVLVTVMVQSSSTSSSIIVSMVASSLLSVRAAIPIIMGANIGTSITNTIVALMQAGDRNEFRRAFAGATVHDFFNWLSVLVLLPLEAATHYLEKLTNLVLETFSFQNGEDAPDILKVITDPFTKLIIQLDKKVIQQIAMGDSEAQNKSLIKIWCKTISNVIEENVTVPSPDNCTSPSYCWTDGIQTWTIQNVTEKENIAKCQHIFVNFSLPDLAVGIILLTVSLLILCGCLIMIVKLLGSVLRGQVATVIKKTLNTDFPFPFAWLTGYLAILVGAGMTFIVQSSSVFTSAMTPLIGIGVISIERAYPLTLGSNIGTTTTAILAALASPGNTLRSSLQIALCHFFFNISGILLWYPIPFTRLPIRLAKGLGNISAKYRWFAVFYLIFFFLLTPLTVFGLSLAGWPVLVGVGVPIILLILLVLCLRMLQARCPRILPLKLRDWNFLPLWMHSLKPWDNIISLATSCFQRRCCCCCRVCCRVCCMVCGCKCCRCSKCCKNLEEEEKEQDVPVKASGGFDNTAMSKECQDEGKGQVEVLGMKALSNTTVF
The assay is described as follows: Sodium-dependent phosphate uptake of Xenopus oocytes which expressed NaPi-2b (32P). In kind it is cell-based. To be noted: Xenopus oocytes expressing rat NaPi-2b, 32P radioactive phosphorus; read-out: IC50 (phosphate uptake inhibitory activity). Summed up:
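Read-out is 32P phosphate uptake into Xenopus oocytes expressing rat intestinal NaPi-2b (cRNA injection, 2-day culture). Inhibition at 300 μM and 100 μM was derived from a single inhibition curve and given as percent.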
As for `O=C(Nc1ccc(Br)cc1C(=O)N/N=C/c1cccc(F)c1)c1ccc(CN2CCN(CC(=O)N3CCOCC3)CC2)cc1` [Compound 731, N-[4-Bromo-2-(3-fluoro-benzylidene-hydrazinocarbonyl)-phenyl]-4-[4-(2-morpholin-4-yl-2-oxo-ethyl)-piperazin-1-ylmethyl]-benzamide], the pIC50 (as a rule, the IC50 on a negative log10 scale, so that one unit is a factor of ten) is 4.72.
Still for that read-out and setting: the figure for `CCN(CC)CCN(C)Cc1cccc(-c2nc3sc4c(c3c(=O)n2/N=C/c2ccc(OC)cc2)CCCC4)c1` [Compound 675, 2-(3-{[(2-Diethylamino-ethyl)-methyl-amino]-methyl}-phenyl)-3-[(4-methoxy-benzylidene-)-amino]-5,6,7,8-tetrahydro-3H-benzo[4,5]thieno[2,3-d]pyrimidin-4-one] is above 5.52.
On the same count and under the same terms, as for `CCN(CC)CCN(C)Cc1cccc(C(=O)Nc2ccc(OCCCCF)cc2C(=O)N/N=C/c2ccc(C)c(C)c2)c1` [Compound 1059, 3-{[(2-Diethylamino-ethyl)-methyl-amino]-methyl}-N-[2-(3,4-dimethyl-benzylidene-hydrazinocarbonyl)-4-(4-fluoro-butoxy)-phenyl]-benzamide], the figure is 6.37; as for `COc1ccc(C(=O)Nc2ccccc2C(=O)N/N=C/c2ccc(O)c(O)c2)cc1OC` [Compound 26, N-[2-(3,4-Dihydroxy-benzylidene-hydrazinocarbonyl)-phenyl]-3,4-dimethoxy-benzamide], 4.60.
With `Cc1csc(NC(=O)c2cccc(CN3CCC(CO)CC3)c2)c1C(=O)N/N=C/c1ccc(F)cc1` [Compound 601, N-[3-(4-Fluoro-benzylidene-hydrazinocarbonyl)-4-methyl-thiophen-2-yl]-3-(4-hydroxymethyl-piperidin-1-ylmethyl)-benzamide], the pIC50 is above 5.52.
Same read-out and setting: as for `O=C(Nc1cscc1C(=O)N/N=C/c1cccc(F)c1)c1cccc(CN2CCN(CCO)CC2)c1` [Compound 980, N-[4-(3-Fluoro-benzylidene-hydrazinocarbonyl)-thiophen-3-yl]-3-[4-(2-hydroxy-ethyl)-piperazin-1-ylmethyl]-benzamide], the figure is 4.86.
On the same count and under the same terms, the figure for `C/C(=N\NC(=O)c1cc(Cl)ccc1NC(=O)c1cccnc1)c1ccc(C)cc1` [Compound 217, N-[4-Chloro-2-(1-p-toluyl-ethylidene-hydrazinocarbonyl)-phenyl]-nicotinamide] is 4.95.
Take `COc1ccc(/C=N/NC(=O)c2c(NC(=O)c3cccc(CN4CCC(CO)CC4)c3)sc3c2CCC3)cc1` [Compound 821, 3-(4-Hydroxymethyl-piperidin-1-ylmethyl)-N-[3-(4-methoxy-benzylidene-hydrazinocarbonyl)-5,6-dihydro-4H-cyclopenta[b]thiophen-2-yl]-benzamide]: the negative logarithm of the IC50 (pIC50) was 4.75.
For `COc1cc(OC)cc(C(=O)Nc2ccccc2C(=O)N/N=C/c2ccc(OC)c(Br)c2)c1` [Compound 99, N-[2-(3-Bromo-4-methoxy-benzylidene-hydrazinocarbonyl)-phenyl]-3,5-dimethoxy-benzamide], the pIC50 was 5.52.
The same measure, in the same setting: the figure for `CC(O)CN(Cc1ccc(C(=O)Nc2ccc(Br)cc2C(=O)N/N=C/c2ccc(F)cc2)cc1)CC(C)O` (centres unmarked) [Compound 719, 4-{[Bis-(2-hydroxy-propyl)-amino]-methyl}-N-[4-bromo-2-(4-fluoro-benzylidene-hydrazinocarbonyl)-phenyl]-benzamide] is 5.02.
On to `CCSCCNCc1ccc(C(=O)Nc2ccc(Br)cc2C(=O)N/N=C/c2ccc(OC)cc2)cc1` [Compound 770, N-[4-Bromo-2-(4-methoxy-benzylidene-hydrazinocarbonyl)-phenyl]-4-[(2-ethylsulfanyl-ethylamino)-methyl]-benzamide], for which the pIC50 is 4.78.
As for `COc1ccc(C(=O)Nc2ccccc2C(=O)N/N=C/c2cccc([N+](=O)[O-])c2)cc1OC` [Compound 103, 3,4-Dimethoxy-N-[2-(3-nitro-benzylidene-hydrazinocarbonyl)-phenyl]-benzamide], the pIC50 is 5.24.
Still for that read-out and setting: the figure for `O=C(Nc1ccc(Br)cc1C(=O)N/N=C/c1ccc(F)cc1)c1ccco1` [Compound 152, Furan-2-carboxylic acid [4-bromo-2-(4-fluoro-benzylidene-hydrazinocarbonyl)-phenyl]-amide] is 5.83; for `COc1ccc(/C=N/NC(=O)c2cc3ccccc3cc2NC(=O)c2cccc(CN3CCN(CCO)CC3)c2)cc1` [Compound 973, 3-[4-(2-Hydroxy-ethyl)-piperazin-1-ylmethyl]-N-[3-(4-methoxy-benzylidene-hydrazinocarbonyl)-naphthalen-2-yl]-benzamide] it is above 5.52.
In the case of `O=C(Nc1ccc(Br)cc1C(=O)N/N=C/c1cccc(F)c1)c1ccc(CN2CCN(CCO)CC2)cc1` [Compound 320, N-[4-Bromo-2-(3-fluoro-benzylidene-hydrazinocarbonyl)-phenyl]-4-[4-(2-hydroxy-ethyl)-piperazin-1-ylmethyl]-benzamide], the pIC50 is 5.39.
The same measure, in the same setting: as for `CCN(CCO)Cc1ccc(C(=O)Nc2ccc(Cl)cc2C(=O)N/N=C/c2ccc(C)cc2)cc1` [Compound 435, N-[4-Chloro-2-(4-methyl-benzylidene-hydrazinocarbonyl)-phenyl]-4-{[ethyl-(2-hydroxy-ethyl)-amino]-methyl}-benzamide], the figure is 5.12.
With `COc1ccc(C(=O)Nc2ccc(Br)cc2C(=O)N/N=C/c2cccc(C)c2)cc1OC` [Compound 31, N-[4-Bromo-2-(3-methyl-benzylidene-hydrazinocarbonyl)-phenyl]-3,4-dimethoxy-benzamide], the pIC50 was 6.24.
On the same count and under the same terms, as for `COc1ccc(C(=O)Nc2ccc(C)cc2C(=O)N/N=C/c2ccc(C)cc2)cc1OC` [Compound 149, 3,4-Dimethoxy-N-[4-methyl-2-(4-methyl-benzylidene-hydrazinocarbonyl)-phenyl]-benzamide], the figure is 5.26.
The same measure, in the same setting: as for `COc1ccc(/C=N/NC(=O)c2cc(Br)ccc2NC(=O)c2ccc(CN3CCN(CCO)CC3)cc2)cc1` [Compound 322, N-[4-Bromo-2-(4-methoxy-benzylidene-hydrazinocarbonyl)-phenyl]-4-[4-(2-hydroxy-ethyl)-piperazin-1-ylmethyl]-benzamide], the figure is 5.23.
On to `Cc1ccc(/C=N/NC(=O)c2ccccc2NC(=O)c2ccncc2)cc1` [Compound 137, N-[2-(4-Methyl-benzylidene-hydrazinocarbonyl)-phenyl]-isonicotinamide], for which the pIC50 was 5.52.
On the same count and under the same terms, as for `CCN(CC)CCN(C)Cc1cccc(C(=O)Nc2scc(C)c2C(=O)N/N=C/c2ccc(C)cc2)c1` [Compound 564, 3-{[(2-Diethylamino-ethyl)-methyl-amino]-methyl}-N-[4-methyl-3-(4-methyl-benzylidene-hydrazinocarbonyl)-thiophen-2-yl]-benzamide], the figure is 4.94.

The same assay, now with this note: phosphate uptake, oocytes expressing rat NaPi-2b; 300 μM, determined from inhibition curve.
On to `O=C(Nc1ccc(Br)cc1C(=O)N/N=C/c1cccc(F)c1)c1ccc(CN2CCN(c3ccccn3)CC2)cc1` [Compound 775, N-[4-Bromo-2-(3-fluoro-benzylidene-hydrazinocarbonyl)-phenyl]-4-(4-pyridin-2-yl-piperazin-1-ylmethyl)-benzamide], for which 300 µM produced 44.6% inhibition.
Consider `COc1ccc(/C=N/NC(=O)c2scc(C)c2NC(=O)c2cccc(CN3CCC(N4CCCCC4)CC3)c2)cc1` [Compound 531, 3-[1,4′]Bipiperidinyl-1′-ylmethyl-N-[2-(4-methoxy-benzylidene-hydrazinocarbonyl)-4-methyl-thiophen-3-yl]-benzamide], for which the inhibition (commonly the percentage by which the read-out fell short of the control) at 300 µM turned out to be 35.7%.
